Measurements from patent US20030032674A1, “Use of unsaturated fatty acids to treat severe inflammatory diseases” (priority 2001, published 2003).

Key:
COX-2 promoter = COX-2 promoter luciferase reporter gene assay, transiently transfected RAW 264.7 cells; type: cell-based, murine; parameters: lauric acid-induced COX-2 expression on co-transfection of dominant-negative IkBa / lauric acid-induced COX-2 expression on co-transfection of dominant-negative PPARγ / lauric acid-induced COX-2 expression on co-transfection of dominant-negative TLR4 [DTLR4 (P712H)]: dose or concentration left out as unconfirmed
Excerpt: Plasmids and DNA Constructs—All plasmids and constructs were obtained or made as reported in either S. H. Rhee and D. Hwang, “Murine TOLL-like receptor 4 confers lipopolysaccaride responsiveness as determined by activation of NFκB and expression of the inducible cyclooxygenase,” Journal of Biological Chemistry, vol. 275, pp. 34035-34040 (2000); and J. Y. Lee et al., “Saturated fatty acids, but not unsaturated fatty acids, induce the expression of cyclooxygenase-2 mediated through TOLL-like receptor 4,” Journal of Biological Chemistry, vol. 276, pp. 16683-16689 (2001). Briefly, the luciferase reporter plasmids (pGL2) containing the promoter region of the murine COX-2 gene (−3201/+93 or −1017/+93) were provided by David Dewitt (Michigan State University, East Lansing, Mich.). To prepare the wild-type COX-2 promoter fragment, polymerase chain reaction (PCR) was performed with the primers named Kpn-COX2-For and Hind-COX2-Rev using the murine COX-2 (−1017/+93) luciferase reporter plasmid as a template. To prepare the mutant COX-2 promoter fragment containing mutated NFκB site, Kpn-COX2-Fmut and Hind-COX2-Rev were used as primers. Each PCR fragment was inserted into the KpnI and HindIII sites of pGL2 to generate the wild-type or mutant COX-2 (−410/+86) luciferase reporter constructs, respectively. Sequences for wild-type NFκB site and the primers were used as reported elsewhere. (See Lee et al., 2001). The 2×NFκB-luciferase reporter construct was a gift from Frank Mercurio (Signal Pharmaceuticals, San Diego, Calif.). HSP70-β-galactosidase reporter plasmid was a gift from Robert Modlin (University of California, Los Angeles, Calif.). The expression plasmids for a constitutively active form of TLR4 (DTLR4) and a dominant-negative mutant, DTLR4 (P712H) were prepared as previously described. See S. H. Rhee et al., 2000. The expression plasmid of the wild-type NFκB-inducing kinase (NIK), pRK-NIK(wt) was a gift from Mike Rothe (Tularik, South San Francisco, Calif.). The dominant-negative mutant of inhibitor kB (pCMV4-IkBa(DN)) was provided by Dean Ballard (Vanderbilt University, Nashville, Tenn.). 4×NFκB-luciferase reporter construct was purchased from Clontech (Palo Alto, Calif.) and used for transient transfection. Heat shock protein 70 (HSP70)-β-galactosidase reporter plasmid was from Robert Modlin (University of Calif., Los Angeles, Calif.). The expression plasmids for a wild-type TLR2 and a dominant-negative mutant [TLR2 (P681H)] were from C. B. Wilson (University of Washington, Seattle, Wash.). Constitutively active chimeric CD4-TLR4 was obtained from C. A. Janeway, Jr. (Yale University, New Haven, Conn.). The constitutively active form of MyD88 (MyD88(ΔToll)) and the dominant-negative mutant, MyD88(ΔDD) were kindly provided by Jurg Tschopp (University of Lausanne, Switzerland). The dominant-negative mutant of mouse PPARg [pCMX-PPARg(L466A/L467A)] was a gift from Ira Schulman (Ligand Pharmaceuticals, San Diego, Calif.). All DNA constructs were prepared in large scale using the EndoFree Plasmid Maxi kit (Qiagen, Chatsworth, Calif.) for transfection.
Transient transfection and luciferase assay—These procedures were performed as described in S. H. Rhee et al., “Murine TOLL-like receptor 4 confers lipopolysaccharide responsiveness as determined by activation of NFκB and expression of the inducible cyclooxygenase,” J. Biol. Chem., vol. 275, pp. 34035-34040 (2000); and J. H. Paik et al., “Two opposing effects of non-steroidal anti-inflammatory drugs on the expression of the inducible cyclooxygenase, Mediation through different signaling pathways,” J. Biol. Chem., vol. 275, pp. 28173-28179 (2000). Briefly, RAW 264.7 cells were plated in 6-well plates (5×10^5 cells/well) and transfected with luciferase reporter plasmids and HSP70-β-galactosidase plasmid as an internal control using SuperFect transfect reagent (Quiagen) according to the manufacturer's instructions. […]

[1] = system: constitutively active human TLR4 (CD4-TLR4); experiment: NFκB reporter in 293T cells transfected with constitutively active TLR4; type: cell-based
Excerpt: Plasmids and DNA Constructs—All plasmids and constructs were obtained or made as reported in either S. H. Rhee and D. Hwang, “Murine TOLL-like receptor 4 confers lipopolysaccaride responsiveness as determined by activation of NFκB and expression of the inducible cyclooxygenase,” Journal of Biological Chemistry, vol. 275, pp. 34035-34040 (2000); and J. Y. Lee et al., “Saturated fatty acids, but not unsaturated fatty acids, induce the expression of cyclooxygenase-2 mediated through TOLL-like receptor 4,” Journal of Biological Chemistry, vol. 276, pp. 16683-16689 (2001). Briefly, the luciferase reporter plasmids (pGL2) containing the promoter region of the murine COX-2 gene (−3201/+93 or −1017/+93) were provided by David Dewitt (Michigan State University, East Lansing, Mich.). To prepare the wild-type COX-2 promoter fragment, polymerase chain reaction (PCR) was performed with the primers named Kpn-COX2-For and Hind-COX2-Rev using the murine COX-2 (−1017/+93) luciferase reporter plasmid as a template. To prepare the mutant COX-2 promoter fragment containing mutated NFκB site, Kpn-COX2-Fmut and Hind-COX2-Rev were used as primers. Each PCR fragment was inserted into the KpnI and HindIII sites of pGL2 to generate the wild-type or mutant COX-2 (−410/+86) luciferase reporter constructs, respectively. Sequences for wild-type NFκB site and the primers were used as reported elsewhere. […]

`CCCCCCCCCCCC(=O)O` [lauric acid] was tested, and the “lauric acid-induced COX-2 expression on co-transfection of dominant-negative IkBa” value (COX-2 promoter; 24 hours) was “inhibited”, the “lauric acid-induced COX-2 expression on co-transfection of dominant-negative TLR4 [DTLR4 (P712H)]” value (COX-2 promoter; 24 hours) was “inhibits” and the “lauric acid-induced COX-2 expression on co-transfection of dominant-negative PPARγ” value (COX-2 promoter; 24 hours, with or without PPRE-like sequences) was “not altered”. For the same molecule, the “lauric acid-induced COX-2 expression, promoter with mutated NFκB site vs wild-type site” value (COX-2 promoter; COX-2 promoter reporter with mutated NFκB site) was “significantly reduced” and the “effect on CD4-TLR4-induced NFκB activation” value [1] was “potentiated”.
